pKi: −log10 of the molar value. Read-outs that look alike come from different tables or passages of the source.
How the values were obtained:
human NK-3 receptor = human NK-3 receptor (Homo sapiens (Human), UniProt P29371); assay: 3H-SB222200 binding competition assay with human NK-3 receptor
In short: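 Membranes from CHO cells stably expressing the receptor were incubated with 5 nM 3H-SB222200 and varying compound concentrations in HEPES 25 mM/NaCl 0.1 M/CaCl2 1 mM/MgCl2 5 mM/BSA 0.5%/saponin 10 μg/ml, pH 7.4. Bound radioligand was quantified as membrane-associated radioactivity after filtration.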

human NK-2 receptor = human NK-2 receptor (Homo sapiens (Human), UniProt P21452); assay: Selectivity assay: [125I]-Neurokinin A binding, human NK-2 receptor; details: 0.1 nM [125I]-Neurokinin A, CHO membranes; read-out: hNK-2 (Ki)
Chain of human NK-2 receptor (P21452 whole entry): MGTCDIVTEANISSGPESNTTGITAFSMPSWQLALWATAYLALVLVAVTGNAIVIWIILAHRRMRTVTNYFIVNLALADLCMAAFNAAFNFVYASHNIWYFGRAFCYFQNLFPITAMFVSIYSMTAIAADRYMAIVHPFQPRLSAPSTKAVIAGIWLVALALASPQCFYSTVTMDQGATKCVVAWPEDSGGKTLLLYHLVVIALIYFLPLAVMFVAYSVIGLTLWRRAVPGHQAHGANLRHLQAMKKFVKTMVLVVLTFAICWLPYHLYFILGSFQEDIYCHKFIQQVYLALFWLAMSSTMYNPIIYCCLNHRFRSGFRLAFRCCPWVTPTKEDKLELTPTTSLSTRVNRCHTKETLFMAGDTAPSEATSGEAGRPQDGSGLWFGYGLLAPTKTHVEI
Protocol: The affinity of compounds of the invention for the NK-2 receptor was evaluated in CHO recombinant cells which express the human NK-2 receptor. Membrane suspensions were prepared from these cells. […] Binding assays were performed in a 25 mM HEPES/1 mM CaCl2)/5 mM MgCl2/0.5% BSA/10 μg/ml saponin, at pH 7.4. […] The radioactivity retained on the filters was measured by using the TopCount-NXT reader (Packard).

Chain of human NK-3 receptor (P29371 whole entry): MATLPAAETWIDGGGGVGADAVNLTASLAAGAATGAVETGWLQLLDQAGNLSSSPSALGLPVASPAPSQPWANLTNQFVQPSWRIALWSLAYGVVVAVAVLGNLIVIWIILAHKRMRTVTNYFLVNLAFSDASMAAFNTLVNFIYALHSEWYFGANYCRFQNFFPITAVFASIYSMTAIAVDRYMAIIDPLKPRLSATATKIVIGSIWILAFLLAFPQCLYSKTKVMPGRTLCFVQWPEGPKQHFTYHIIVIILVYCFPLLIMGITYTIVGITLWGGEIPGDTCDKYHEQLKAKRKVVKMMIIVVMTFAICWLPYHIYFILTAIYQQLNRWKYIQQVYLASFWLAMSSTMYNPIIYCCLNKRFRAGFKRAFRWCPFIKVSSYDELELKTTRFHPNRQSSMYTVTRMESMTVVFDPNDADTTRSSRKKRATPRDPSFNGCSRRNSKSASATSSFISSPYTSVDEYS

pKi (human NK-3 receptor; Table 2, 5 nM 3H-SB222200, CHO membranes, read-out: Competitive binding assay with human NK-3 receptor hNK-3 (Ki)): 7.64
pKi (human NK-3 receptor; Table 3 (selectivity table), read-out: hNK-3 (Ki)): 7.64
pKi (human NK-2 receptor): < 4.52
SMILES: Cc1nsc(-c2nnc3n2CCN(C(=O)c2ccc(F)cc2)[C@@H]3C)n1 [Compound 5, (R)-(4-fluorophenyl)(8-methyl-3-(3-methyl-1,2,4-thiadiazol-5-yl)-5,6-dihydro-[1,2,4]triazolo[4,3-a]pyrazin-7(8H)-yl)methanone]
